In US20110178396A1, “Nicotinamide Derivatives” (CRC FOR BIOMEDICAL IMAGING DEVELOPMENT LTD., priority 2008, published 2011):
Values belong to the compound of their own block, whether it stands above or below them.

Experiments:
melanoma tumour = melanoma tumour bearing mice, cited from earlier work
B16F0 melanoma tumour = test: Biodistribution in B16 melanoma bearing mice; format: in vivo, C57BL/6J mice; conditions: C57BL/6J mice; for Organ distribution Intestine / Organ distribution Liver / Organ distribution Spleen / Organ distribution Stomach / Organ distribution Thyroid / Organ distribution Tumour: B16F0 tumour, mean ± S.D.; for Organ distribution Intestine / Organ distribution Liver / Organ distribution Spleen / Organ distribution Stomach / Organ distribution Thyroid / Organ distribution Tumour / Uptake Lung / uptake BLOOD / uptake BRAIN / uptake HEART / uptake KIDNEY / uptake LIVER / uptake TUMOUR: n = 5; for tumour standardized uptake value (SUVt) / Uptake Lung / uptake BLOOD / uptake BRAIN / uptake HEART / uptake KIDNEY / uptake LIVER / uptake TUMOUR: B16 tumour; for Uptake Lung / uptake BLOOD / uptake BRAIN / uptake HEART / uptake KIDNEY / uptake LIVER / uptake TUMOUR: mean ± SD
Method: Animal experiments were performed in compliance with the NHMRC Australian Code of Practice for the care and use of animals for scientific purposes. Female C57BL/6J black and BALB/c nude albino mice of 5 weeks age were obtained from the Animal Resources Centre, Western Australia. B16F0 murine melanoma cells were originally obtained from European Collection of Cell Cultures (UK) and A375 human amelanotic melanoma cells were originally obtained from American Type Culture Collection (USA). Before transplantation, B16F0 and A375 melanoma cells were maintained as a monolayer in RPMI culture medium supplemented with 10% foetal calf serum and antibiotics and passaged with trypsinisation. Early passages were frozen and stored in liquid nitrogen. Cells were passaged to P=10 and then discarded. Frozen aliquots were grown in a monolayer culture to between 80-95% confluence and for transplantation were trypsinised and washed with Ca^2+ and Mg^2+ free phosphate buffered saline (PBS). For inoculation, B16F0 melanoma cells were resuspended in Ca^2+ and Mg^2+ free PBS at 3 or 5×10^6 viable cells per ml and 0.1 ml was subcutaneously injected at the left flank of 6-7 weeks old C57BL/6J mice. Eleven days later, tumours could be palpated in >98% of inoculated animals. A375 human melanoma cells were resuspended at 1×10^7 viablecells per ml and 0.1 ml was injected subcutaneously at the left flank of 6 weeks old BALB/c nude mice and 25-26 days later tumours could be palpated with ˜60% of inoculated animals developing tumours.
Eleven days (B16F0 melanoma) and 25 days (A375 human melanoma) after tumour transplantation, the [^18F]nicotinamides (0.5-1.5 MBq, 100 μl) and [^123I]nicotinamide (0.37-0.74 MBq, 100 μl) derivatives were injected intravenously via the tail vein into mice (15-18 g). Time points of 1, 3, 6, 24, 48, 72 h after injection were chosen for determining the distribution of each compound in various organs and tissues for the iodine-123 labelled compounds and between 15 min and 6 hours (e.g. 15 min, 30 min, 1 h, 2 h, 4 h or 6 h) were chosen for the ^18F-labelled compounds. At defined times post injection, groups of mice (n=5) were weighed, sacrificed by CO2 administration followed by cervical dislocation and dissected. Selected organs were weighed and their radioactivity measured with a γ-counter. The remaining activity in the carcass was also determined in order to obtain the total activity in the mouse at defined time points. The fraction of injected activity (% ID) in the organ was calculated by comparison with suitable dilutions of the injected dose. Then, the radioactivity concentration in the organ (% ID/g) was found by dividing the % ID for each organ by the weight of the organ.

SMILES: CCN(CC)CCNC(=O)c1ccc([18F])cc1 [structure A]
reported tumour uptake (melanoma tumour; at 2 h): 6.5 % ID/g
Typical Tumour: Blood ratio (melanoma tumour): 12

Organ distribution Intestine (B16F0 melanoma tumour; 1 h): 10 ± 1 % ID/organ
Organ distribution Liver (B16F0 melanoma tumour; 1 h): 2.7 ± 0.7 % ID/organ
Organ distribution Spleen (B16F0 melanoma tumour; 1 h): 0.31 ± 0.07 % ID/organ
Organ distribution Stomach (B16F0 melanoma tumour; 1 h): 9 ± 1 % ID/organ
Organ distribution Thyroid (B16F0 melanoma tumour; 1 h): 1.2 ± 0.7 % ID/organ
Organ distribution Tumour (B16F0 melanoma tumour; 1 h): 1.8 ± 0.4 % ID/organ
Organ distribution Intestine (B16F0 melanoma tumour; 6 h): 5 ± 1 % ID/organ
Organ distribution Liver (B16F0 melanoma tumour; 6 h): 1.3 ± 0.4 % ID/organ
Organ distribution Spleen (B16F0 melanoma tumour; 6 h): 0.17 ± 0.05 % ID/organ
Organ distribution Stomach (B16F0 melanoma tumour; 6 h): 7 ± 2 % ID/organ
Organ distribution Thyroid (B16F0 melanoma tumour; 6 h): 3.3 ± 0.8 % ID/organ
Organ distribution Tumour (B16F0 melanoma tumour; 6 h): 1.4 ± 0.8 % ID/organ
Organ distribution Intestine (B16F0 melanoma tumour; 24 h): 0.35 ± 0.03 % ID/organ
Organ distribution Liver (B16F0 melanoma tumour; 24 h): 0.19 ± 0.04 % ID/organ
Organ distribution Spleen (B16F0 melanoma tumour; 24 h): 0.01 ± 0.00 % ID/organ
Organ distribution Stomach (B16F0 melanoma tumour; 24 h): 0.4 ± 0.1 % ID/organ
Organ distribution Thyroid (B16F0 melanoma tumour; 24 h): 6.5 ± 2.8 % ID/organ
Organ distribution Tumour (B16F0 melanoma tumour; 24 h): 0.11 ± 0.06 % ID/organ
tumour standardized uptake value (SUVt) (B16F0 melanoma tumour; 1 h): 1.2 ± 0.1
Uptake Lung (B16F0 melanoma tumour; 1 h): 4.8 ± 0.4 % ID/g
uptake BLOOD (B16F0 melanoma tumour; 1 h): 6.9 ± 0.6 % ID/g
uptake BRAIN (B16F0 melanoma tumour; 1 h): 0.36 ± 0.05 % ID/g
uptake HEART (B16F0 melanoma tumour; 1 h): 2.3 ± 0.2 % ID/g
uptake KIDNEY (B16F0 melanoma tumour; 1 h): 4.2 ± 0.6 % ID/g
uptake LIVER (B16F0 melanoma tumour; 1 h): 3.1 ± 0.6 % ID/g
uptake TUMOUR (B16F0 melanoma tumour; 1 h): 3.8 ± 0.2 % ID/g
tumour standardized uptake value (SUVt) (B16F0 melanoma tumour; 6 h): 1.0 ± 0.1
Uptake Lung (B16F0 melanoma tumour; 6 h): 2.6 ± 0.8 % ID/g
uptake BLOOD (B16F0 melanoma tumour; 6 h): 3.6 ± 1.0 % ID/g
uptake BRAIN (B16F0 melanoma tumour; 6 h): 0.14 ± 0.04 % ID/g
uptake HEART (B16F0 melanoma tumour; 6 h): 1.1 ± 0.3 % ID/g
uptake KIDNEY (B16F0 melanoma tumour; 6 h): 2.4 ± 0.7 % ID/g
uptake LIVER (B16F0 melanoma tumour; 6 h): 1.4 ± 0.5 % ID/g
uptake TUMOUR (B16F0 melanoma tumour; 6 h): 2.3 ± 0.5 % ID/g
tumour standardized uptake value (SUVt) (B16F0 melanoma tumour; 24 h): 0.5 ± 0.2
Uptake Lung (B16F0 melanoma tumour; 24 h): 0.2 ± 0.1 % ID/g
uptake BLOOD (B16F0 melanoma tumour; 24 h): 0.25 ± 0.12 % ID/g
uptake BRAIN (B16F0 melanoma tumour; 24 h): 0.02 % ID/g
uptake HEART (B16F0 melanoma tumour; 24 h): 0.10 ± 0.05 % ID/g
uptake KIDNEY (B16F0 melanoma tumour; 24 h): 0.18 ± 0.05 % ID/g
uptake LIVER (B16F0 melanoma tumour; 24 h): 0.20 ± 0.04 % ID/g
uptake TUMOUR (B16F0 melanoma tumour; 24 h): 0.26 ± 0.14 % ID/g
SMILES: CCN(CC)CCNC(=O)c1ccc(I)nc1 [[^123I]14, N-(2-(Diethylamino)ethyl)-6-iodonicotinamide]
